This is an account of results in patent US8951969B2, “Compositions and methods for treating centrally mediated nausea and vomiting” (Helsinn Healthcare S.A., priority 2009, dated 2015).

For data set [1], the system named is highly emetogenic chemotherapy (HEC)-induced nausea and vomiting. The data set can be described thus: Phase 2 clinical efficacy study, netupitant + palonosetron + dexamethasone. The settings on record: MFAS; for No Emesis, Overall: percent of patients: 0-120 h; for CR, Overall Phase, 0-120 h: Percent of Patients: HEC (cisplatin) patients. The format is in vivo, human. The text has this: A phase 2 trial evaluated three single doses of netupitant combined with palonosetron and dexamethasone compared to palonosetron alone and dexamethasone to obtain dose ranging information for netupitant used with oral palonosetron in the CINV patient population.
The objective of the study was to compare the efficacy and safety of three single oral doses of netupitant combined with oral palonosetron and given with dexamethasone, versus oral palonosetron-alone given with dexamethasone (without netupitant) for the prevention of highly emetogenic chemotherapy (HEC)-induced nausea and vomiting. The FDA-approved oral aprepitant regimen given with IV ondansetron and dexamethasone was included in the study as an active comparator for exploratory purposes. The FDA-approved oral palonosetron 0.5 mg. dose was used in each applicable treatment group in this study.
This was a multicenter, randomized, double-blind, double-dummy, parallel group, stratified study. Eligible patients were randomized (stratified by gender) to one of the following treatment groups: • Group 1—0.5 mg. oral palonosetron on Day 1 (with an oral dexamethasone standard regimen: 20 mg. on Day 1 and 8 mg. BID from Day 2 through Day 4) • Group 2—100 mg. oral netupitant plus 0.5 mg. oral palonosetron on Day 1 (with an oral dexamethasone adjusted regimen*: 12 mg. on Day 1 and 8 mg. daily from Day 2 through Day 4) • Group 3—200 mg. oral netupitant plus 0.5 mg. oral palonosetron on Day 1 (with an oral dexamethasone adjusted regimen*: 12 mg. on Day 1 and 8 mg. daily from Day 2 to Day 4) • Group 4—300 mg. oral netupitant plus 0.5 mg. oral palonosetron on Day 1 (with dexamethasone adjusted regimen*: 12 mg. on Day 1 and 8 mg. daily from Day 2 to Day 4) • Group 5—125 mg. oral aprepitant plus IV ondansetron 32 mg. (both on Day 1) then 80 mg. oral aprepitant on Day 2 and Day 3, (all with an oral dexamethasone adjusted regimen: 12 mg. on Day 1 and 8 mg. daily from Day 2 through Day 4)
The primary efficacy endpoint was the complete response rate (defined as no emetic episodes, no rescue medication) within 120 hours after the start of the highly emetogenic chemotherapy administration. Secondary efficacy endpoints were: • Complete response for the 0-24 hour interval (acute phase); and for the 25-120 hour interval (delayed phase); • Complete protection (defined as no emesis, no rescue therapy, no significant nausea); Total control (defined as no emesis, no rescue therapy and no nausea); No nausea (maximum VAS<5 mm); No significant nausea (maximum VAS<25 mm); No rescue medication; No emesis. These endpoints were evaluated for the 0-120 hour interval (overall), acute and delayed phase. • Time to first emetic episode, Time to first rescue medication, Time to treatment failure (based on time to the first emetic episode or time to the first rescue medication, whichever occurs first); • Severity of nausea for the overall, acute and delayed phase; ● Patient global satisfaction with anti-emetic therapy by means of VAS for each 24 hour interval.

Data set [2] concerns the target T1, NK1 receptors in human brain (Homo sapiens, UniProt P25103).
T1 construct: 6 healthy male volunteers (2 per dose level) receiving single doses of netupitant; from tissue; host or cells: brain of healthy male human volunteers, in vivo
Put plainly: Netupitant PET receptor occupancy study (11C-GR205171 tracer). The format is in vivo. As to conditions: for mean NK1-RO: 96 hours post dose. How it is done: This was a randomized, open-label, positron emission tomography (PET) study using 11C-GR205171 as tracer in 6 healthy male volunteers (2 per dose level) receiving single doses of netupitant (100, 300 or 450 mg) to investigate the degree of occupancy of NK1 receptors in human brain, and to determine the relationship between plasma concentration of netupitant and NK1 receptor occupancy (RO).

Data set [3] can be described thus: Pharmacokinetics of combined dosage form: randomized, open, 3-way crossover study. The format is in vivo. As to conditions: human, plasma netupitant, oral netupitant 450 mg single dose, fasting. How it is done:
The effects of palonosetron on the pharmacokinetics (PK) of netupitant and the effects of netupitant on the PK of palonosetron were examined in healthy volunteers. A randomized, open, 3-way crossover study was conducted. Each subject participated in 3 treatment periods, each lasting approximately 12 days (Day −1 to Day 11). The treatment periods were separated by wash-out periods of no less than 14 days (between Day 1 of any 2 consecutive treatment periods). Treatment A: oral netupitant 450 mg. administered as single dose of three 150 mg. capsules. Treatment B: oral palonosetron 0.75 mg. and oral netupitant 450 mg. administered simultaneously as three capsules of 150 mg. netupitant followed by 1 capsule of 0.75 mg. palonosetron. Treatment C: oral palonosetron 0.75 mg. administered as single dose as one 0.75 mg. capsule. Doses were administered under fasting conditions. Subjects fasted over-night for approximately 10 hours. Water, however, was permitted up to 1 hour pre-dose. Food intake was permitted 4 hours post-dose, and water was allowed ad libitum 1 hour post-dose. Doses were administered with the subject in an upright position. The subjects remained in an upright position for 4 hours post-dose. The capsules were swallowed whole with 250 mL of room-temperature tap water. Repeated PK blood sampling (for netupitant and/or palonosetron) was performed. The primary PK variables assessed for netupitant and palonosetron were the maximum plasma concentration observed (Cmax), the area under the plasma concentration versus time curve from time zero to the last quantifiable sampling time point (t) (AUC0-t), and the area under the plasma concentration versus time curve from time zero to infinity (AUC0-inf). The secondary PK variables assessed were the terminal elimination half-life (t1/2, z), and the time at which the maximum plasma concentration was observed (tmax). Results are depicted in below Tables 3 and 4, as well as FIGS. 2 and 3.

The test system of data set [4] is nausea following moderately or highly emetogenic chemotherapy. The settings on record: humans, compared to a 5-HT3 antagonist alone; cited from earlier work.
For data set [5], the system named is nausea, moderately emetogenic chemotherapy. The settings on record: cited from earlier work.
The mark [6] stands for this setting: netupitant 100 mg + palonosetron 0.5 mg oral Day 1, with dexamethasone.
The mark [7] stands for this setting: netupitant 200 mg + palonosetron 0.5 mg oral Day 1, with dexamethasone.
Where [8] appears, read: netupitant 300 mg + palonosetron 0.5 mg oral Day 1, with dexamethasone.

T1 sequence (P25103 whole entry): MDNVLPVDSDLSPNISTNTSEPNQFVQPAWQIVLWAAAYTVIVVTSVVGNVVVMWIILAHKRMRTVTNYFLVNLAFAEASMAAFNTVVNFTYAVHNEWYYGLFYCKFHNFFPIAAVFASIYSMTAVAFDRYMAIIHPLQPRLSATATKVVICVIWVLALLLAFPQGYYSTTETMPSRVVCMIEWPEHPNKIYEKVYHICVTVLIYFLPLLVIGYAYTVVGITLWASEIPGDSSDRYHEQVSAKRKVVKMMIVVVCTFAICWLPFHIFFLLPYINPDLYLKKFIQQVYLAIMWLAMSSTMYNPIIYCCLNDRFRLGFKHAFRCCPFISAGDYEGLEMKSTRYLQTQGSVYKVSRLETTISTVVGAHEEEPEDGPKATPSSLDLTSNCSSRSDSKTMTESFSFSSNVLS

For the molecule `Cc1ccccc1-c1cc(N2CCN(C)CC2)ncc1N(C)C(=O)C(C)(C)c1cc(C(F)(F)F)cc(C(F)(F)F)c1` [Netupitant, 2-[3,5-bis(trifluoromethyl)phenyl]-N,2-dimethyl-N-[4-(2-methylphenyl)-6-(4-methylpiperazin-1-yl)pyridin-3-yl]propanamide], the figures for the “No Emesis, Overall: percent of patients” value in data set [1] (setting [6]), in data set [1] (setting [7]) and in data set [1] (setting [8]) were 87.4%, 87.6% and 91.1%, respectively. Moreover, the “CR, Overall Phase, 0-120 h: Percent of Patients” value in data set [1] (setting [6]) came out at 87.4%; in data set [1] (setting [7]), 87.6%; in data set [1] (setting [8]), 89.6%. For the same molecule, the “mean NK1-RO” value in data set [2] (100 mg dose group, 4 of 6 regions) is reported as “over 70%”; in data set [2] (450 mg dose group, 5 of 6 regions), no less than 80%. In data set [2] (6 hours post dose, striatum, occipital cortex, frontal cortex and anterior cingulate, reached in 3 of 6 subjects (1 at 300 mg, 2 at 450 mg single oral dose)), the “NK1 receptor occupancy (NK1-RO)” value is no less than 90%. Further, the Cmax in data set [3] (mean (SD)) stood at 650 ng/mL. Further, in data set [3] (mean (SD), read-out: Netupitant AUC0-t), the AUC(0-t) worked out at 22800 ng·h/mL. For the same molecule, the AUC in data set [3] (mean (SD), read-out: Netupitant AUCo-inf) is 25900 ng·h/mL. In data set [3] (median (range), read-out: Netupitant t1/2, z (converted)), the half-life is 71.8 h. The Tmax in data set [3] (median (range), read-out: Netupitant tmax) amounted to 4.5 h.

In the case of `C[C@@H](O[C@H]1OCCN(Cc2n[nH]c(=O)[nH]2)[C@H]1c1ccc(F)cc1)c1cc(C(F)(F)F)cc(C(F)(F)F)c1` [aprepitant], in data set [4], the “effect on incidence or severity of nausea” value is “unable to induce a significant reduction in the incidence or severity of nausea”.

With `CC(=O)N1CCN([C@H]2CCN(C(=O)N(C)[C@H](C)c3cc(C(F)(F)F)cc(C(F)(F)F)c3)[C@@H](c3ccc(F)cc3C)C2)CC1` [casopitant, (2R,4S)-4-(4-acetytlpiperazin-1-yl)-N-{(1R)-1-[3,5-bis(trifluoromethyl)phenyl]ethyl}-2-(4-fluoro-2-methylphenyl)-N-methylpiperidine-1-carboxamide], the effect against nausea entry in data set [5] (administered in response to moderately emetogenic chemotherapy) was “no statistically significant effect against nausea”. In addition, the side effect entry in data set [5] (moderately emetogenic chemotherapy) was “induced nausea as a side effect”.

As usually defined, the Cmax is the peak of the concentration-time curve. As a reminder, the Tmax is the time from dosing to the highest level.
